Source: ChEMBL document CHEMBL3991601, “The target landscape of clinical kinase drugs” (Science, 2017)
Calls of active or inactive are those of the source.

Key:
Actin-related protein 2 = Actin-related protein 2 (Homo sapiens, UniProt P61160)
[1] = target: S-adenosylmethionine synthase isoform type-2 (Homo sapiens, UniProt P31153)
[2] = target: Casein kinase I isoform epsilon (Homo sapiens, UniProt P49674)
[3] = target: Tyrosine-protein kinase SYK (Homo sapiens, UniProt P43405)
[4] = target: DnaJ homolog subfamily A member 1 (Homo sapiens, UniProt P31689)
Chain of DnaJ homolog subfamily A member 1 (P31689 whole entry): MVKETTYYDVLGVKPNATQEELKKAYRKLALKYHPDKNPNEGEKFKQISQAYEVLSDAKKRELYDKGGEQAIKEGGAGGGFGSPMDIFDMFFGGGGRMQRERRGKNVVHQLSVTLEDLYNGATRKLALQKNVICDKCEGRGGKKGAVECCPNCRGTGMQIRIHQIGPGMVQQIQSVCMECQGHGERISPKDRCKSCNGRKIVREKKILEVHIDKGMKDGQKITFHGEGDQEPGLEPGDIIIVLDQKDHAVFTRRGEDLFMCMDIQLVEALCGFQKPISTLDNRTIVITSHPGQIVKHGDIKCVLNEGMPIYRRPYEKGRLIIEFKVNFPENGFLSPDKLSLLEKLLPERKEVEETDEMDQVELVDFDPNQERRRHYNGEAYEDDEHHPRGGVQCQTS

[5] = target: Cyclin-dependent kinase 7 (Homo sapiens, UniProt P50613)
[6] = target: T1, Glycogen phosphorylase, liver form (Homo sapiens, UniProt P06737); assay type: subcellular, K-562, COLO 205, SK-N-BE(2) and MV-4-11, Cell lysate; details: read-out: Kd apparent
T1 sequence (P06737 whole entry): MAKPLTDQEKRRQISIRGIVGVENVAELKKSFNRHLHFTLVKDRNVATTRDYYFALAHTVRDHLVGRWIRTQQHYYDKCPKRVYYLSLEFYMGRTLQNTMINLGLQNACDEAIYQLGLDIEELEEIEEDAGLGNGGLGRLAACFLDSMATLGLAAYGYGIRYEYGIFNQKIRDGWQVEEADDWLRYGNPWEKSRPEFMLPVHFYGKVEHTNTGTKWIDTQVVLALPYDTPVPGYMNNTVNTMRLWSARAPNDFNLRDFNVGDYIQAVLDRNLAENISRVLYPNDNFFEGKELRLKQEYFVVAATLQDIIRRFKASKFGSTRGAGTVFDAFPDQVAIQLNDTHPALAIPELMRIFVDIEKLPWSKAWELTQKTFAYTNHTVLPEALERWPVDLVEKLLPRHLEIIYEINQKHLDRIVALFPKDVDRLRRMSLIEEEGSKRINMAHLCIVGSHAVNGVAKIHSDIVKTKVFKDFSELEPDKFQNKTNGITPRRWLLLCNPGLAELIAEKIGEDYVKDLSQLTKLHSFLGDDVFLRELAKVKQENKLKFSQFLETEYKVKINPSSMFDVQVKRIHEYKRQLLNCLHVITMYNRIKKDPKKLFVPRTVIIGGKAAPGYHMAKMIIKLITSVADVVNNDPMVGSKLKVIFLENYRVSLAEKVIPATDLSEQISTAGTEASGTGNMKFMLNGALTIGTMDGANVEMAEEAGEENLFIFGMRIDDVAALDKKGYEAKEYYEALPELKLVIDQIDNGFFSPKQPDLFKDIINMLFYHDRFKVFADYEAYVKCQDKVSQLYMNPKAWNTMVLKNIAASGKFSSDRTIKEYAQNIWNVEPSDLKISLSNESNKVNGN

[7] = target: Inosine-5'-monophosphate dehydrogenase 2 (Homo sapiens, UniProt P12268)
[8] = target: T2, Serine/threonine-protein kinase Nek1 (Homo sapiens, UniProt Q96PY6)
T2 sequence (Q96PY6 whole entry): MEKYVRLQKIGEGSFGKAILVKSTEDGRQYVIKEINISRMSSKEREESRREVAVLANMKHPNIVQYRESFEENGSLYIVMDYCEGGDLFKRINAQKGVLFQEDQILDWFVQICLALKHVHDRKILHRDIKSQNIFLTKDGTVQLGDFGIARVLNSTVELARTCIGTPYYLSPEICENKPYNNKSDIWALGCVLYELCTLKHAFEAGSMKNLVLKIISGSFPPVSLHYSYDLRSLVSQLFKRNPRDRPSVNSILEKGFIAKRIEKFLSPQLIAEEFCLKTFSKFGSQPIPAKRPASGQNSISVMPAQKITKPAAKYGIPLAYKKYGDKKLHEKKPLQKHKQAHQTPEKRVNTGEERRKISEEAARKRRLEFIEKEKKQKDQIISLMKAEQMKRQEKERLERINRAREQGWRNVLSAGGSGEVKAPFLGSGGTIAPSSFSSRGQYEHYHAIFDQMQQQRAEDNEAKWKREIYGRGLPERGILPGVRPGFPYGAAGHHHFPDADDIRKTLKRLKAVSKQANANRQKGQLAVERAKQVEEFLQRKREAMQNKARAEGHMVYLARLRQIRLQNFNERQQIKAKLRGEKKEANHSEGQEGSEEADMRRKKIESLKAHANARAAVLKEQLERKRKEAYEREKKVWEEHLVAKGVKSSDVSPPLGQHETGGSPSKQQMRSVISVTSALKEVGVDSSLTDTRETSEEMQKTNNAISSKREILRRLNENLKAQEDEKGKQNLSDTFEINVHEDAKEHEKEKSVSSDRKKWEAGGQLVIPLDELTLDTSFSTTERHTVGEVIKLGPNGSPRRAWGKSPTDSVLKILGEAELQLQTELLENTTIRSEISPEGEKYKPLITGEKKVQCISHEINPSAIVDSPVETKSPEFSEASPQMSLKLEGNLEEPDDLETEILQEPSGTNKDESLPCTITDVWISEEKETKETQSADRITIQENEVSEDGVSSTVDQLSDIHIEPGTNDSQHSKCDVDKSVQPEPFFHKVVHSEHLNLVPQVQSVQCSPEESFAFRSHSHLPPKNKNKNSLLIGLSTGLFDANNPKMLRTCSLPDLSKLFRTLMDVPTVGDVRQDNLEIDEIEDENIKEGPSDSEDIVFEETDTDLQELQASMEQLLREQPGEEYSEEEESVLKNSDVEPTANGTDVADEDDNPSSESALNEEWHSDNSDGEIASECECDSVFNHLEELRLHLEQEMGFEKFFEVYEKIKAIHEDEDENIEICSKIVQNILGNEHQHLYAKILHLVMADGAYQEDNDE

[9] = target: Serine/threonine-protein kinase B-raf (Homo sapiens, UniProt P15056)
Myosin-10 = Myosin-10 (Homo sapiens, UniProt P35580)
Chain of Myosin-10 (P35580 whole entry): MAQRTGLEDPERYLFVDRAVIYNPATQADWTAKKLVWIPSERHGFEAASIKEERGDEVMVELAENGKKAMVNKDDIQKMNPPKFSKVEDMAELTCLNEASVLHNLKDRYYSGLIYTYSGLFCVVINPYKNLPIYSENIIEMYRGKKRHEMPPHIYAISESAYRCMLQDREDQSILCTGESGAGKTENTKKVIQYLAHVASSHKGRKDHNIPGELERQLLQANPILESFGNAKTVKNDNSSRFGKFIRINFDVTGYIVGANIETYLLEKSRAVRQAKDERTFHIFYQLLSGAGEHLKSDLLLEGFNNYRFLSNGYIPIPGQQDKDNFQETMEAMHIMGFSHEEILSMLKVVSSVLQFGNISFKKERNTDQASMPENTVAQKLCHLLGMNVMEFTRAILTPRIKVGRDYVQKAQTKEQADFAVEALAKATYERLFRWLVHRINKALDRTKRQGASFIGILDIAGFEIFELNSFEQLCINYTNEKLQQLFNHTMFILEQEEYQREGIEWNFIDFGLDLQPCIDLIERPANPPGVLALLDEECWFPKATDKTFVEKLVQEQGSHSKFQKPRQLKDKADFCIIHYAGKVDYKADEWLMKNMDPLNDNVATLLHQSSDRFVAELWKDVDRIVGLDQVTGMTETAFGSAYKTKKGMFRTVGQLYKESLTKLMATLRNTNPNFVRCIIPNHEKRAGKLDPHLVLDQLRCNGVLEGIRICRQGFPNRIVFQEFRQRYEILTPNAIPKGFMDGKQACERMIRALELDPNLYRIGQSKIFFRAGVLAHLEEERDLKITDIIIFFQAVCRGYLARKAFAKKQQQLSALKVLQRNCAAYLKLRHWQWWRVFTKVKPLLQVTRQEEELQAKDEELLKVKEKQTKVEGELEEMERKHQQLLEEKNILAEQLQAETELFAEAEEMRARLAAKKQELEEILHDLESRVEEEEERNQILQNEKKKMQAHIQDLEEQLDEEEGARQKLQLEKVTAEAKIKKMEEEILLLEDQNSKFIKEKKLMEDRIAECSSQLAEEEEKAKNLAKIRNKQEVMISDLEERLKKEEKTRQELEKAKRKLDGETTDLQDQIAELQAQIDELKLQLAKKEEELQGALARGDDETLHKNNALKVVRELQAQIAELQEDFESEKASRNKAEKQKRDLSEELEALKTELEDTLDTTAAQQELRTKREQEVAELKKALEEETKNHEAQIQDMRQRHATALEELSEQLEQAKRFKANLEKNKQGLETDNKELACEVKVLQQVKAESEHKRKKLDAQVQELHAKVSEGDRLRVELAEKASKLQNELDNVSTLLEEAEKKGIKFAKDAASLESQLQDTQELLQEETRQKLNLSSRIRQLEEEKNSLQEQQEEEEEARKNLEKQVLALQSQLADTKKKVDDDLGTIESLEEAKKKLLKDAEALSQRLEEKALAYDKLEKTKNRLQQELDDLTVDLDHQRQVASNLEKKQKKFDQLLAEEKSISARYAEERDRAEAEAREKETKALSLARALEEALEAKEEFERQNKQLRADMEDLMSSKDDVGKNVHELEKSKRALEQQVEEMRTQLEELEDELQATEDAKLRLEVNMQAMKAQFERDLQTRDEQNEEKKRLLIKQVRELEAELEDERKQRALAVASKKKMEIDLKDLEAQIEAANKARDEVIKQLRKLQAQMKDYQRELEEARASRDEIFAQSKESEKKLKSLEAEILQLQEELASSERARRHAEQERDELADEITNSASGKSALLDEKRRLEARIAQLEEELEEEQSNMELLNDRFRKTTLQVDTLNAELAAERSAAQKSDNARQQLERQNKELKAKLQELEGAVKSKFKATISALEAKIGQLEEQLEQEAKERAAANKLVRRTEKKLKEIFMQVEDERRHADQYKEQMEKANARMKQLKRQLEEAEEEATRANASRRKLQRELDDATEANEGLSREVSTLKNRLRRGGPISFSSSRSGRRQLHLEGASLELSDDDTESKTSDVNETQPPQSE

Aurora kinase B = Aurora kinase B (Homo sapiens, UniProt Q96GD4)
Chain of Aurora kinase B (Q96GD4 whole entry): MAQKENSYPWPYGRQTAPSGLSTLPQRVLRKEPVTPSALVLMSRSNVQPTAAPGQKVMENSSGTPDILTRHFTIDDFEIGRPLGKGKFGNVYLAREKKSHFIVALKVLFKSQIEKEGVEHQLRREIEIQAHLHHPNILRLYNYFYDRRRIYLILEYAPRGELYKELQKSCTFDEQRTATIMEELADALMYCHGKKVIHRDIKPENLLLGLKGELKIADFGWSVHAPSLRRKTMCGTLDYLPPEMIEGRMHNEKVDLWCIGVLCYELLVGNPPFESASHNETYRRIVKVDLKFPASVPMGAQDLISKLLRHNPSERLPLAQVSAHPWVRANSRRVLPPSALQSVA

[10] = target: Protein-tyrosine kinase 6 (Homo sapiens, UniProt Q13882)
Chain of Protein-tyrosine kinase 6 (Q13882 whole entry): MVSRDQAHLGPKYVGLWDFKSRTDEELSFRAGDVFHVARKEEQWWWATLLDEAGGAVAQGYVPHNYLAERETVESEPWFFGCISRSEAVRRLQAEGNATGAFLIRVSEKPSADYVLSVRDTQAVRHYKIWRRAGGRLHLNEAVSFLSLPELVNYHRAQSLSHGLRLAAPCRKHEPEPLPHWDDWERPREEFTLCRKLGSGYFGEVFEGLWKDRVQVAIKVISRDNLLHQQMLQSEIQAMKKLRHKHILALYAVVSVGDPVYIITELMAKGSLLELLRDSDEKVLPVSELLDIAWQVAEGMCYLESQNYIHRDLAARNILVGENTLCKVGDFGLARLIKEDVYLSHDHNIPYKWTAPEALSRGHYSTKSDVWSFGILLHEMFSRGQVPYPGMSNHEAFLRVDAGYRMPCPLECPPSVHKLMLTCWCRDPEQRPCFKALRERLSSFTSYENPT

[11] = target: Cyclin-dependent kinase 12 (Homo sapiens, UniProt Q9NYV4)
Chain of Cyclin-dependent kinase 12 (Q9NYV4 whole entry): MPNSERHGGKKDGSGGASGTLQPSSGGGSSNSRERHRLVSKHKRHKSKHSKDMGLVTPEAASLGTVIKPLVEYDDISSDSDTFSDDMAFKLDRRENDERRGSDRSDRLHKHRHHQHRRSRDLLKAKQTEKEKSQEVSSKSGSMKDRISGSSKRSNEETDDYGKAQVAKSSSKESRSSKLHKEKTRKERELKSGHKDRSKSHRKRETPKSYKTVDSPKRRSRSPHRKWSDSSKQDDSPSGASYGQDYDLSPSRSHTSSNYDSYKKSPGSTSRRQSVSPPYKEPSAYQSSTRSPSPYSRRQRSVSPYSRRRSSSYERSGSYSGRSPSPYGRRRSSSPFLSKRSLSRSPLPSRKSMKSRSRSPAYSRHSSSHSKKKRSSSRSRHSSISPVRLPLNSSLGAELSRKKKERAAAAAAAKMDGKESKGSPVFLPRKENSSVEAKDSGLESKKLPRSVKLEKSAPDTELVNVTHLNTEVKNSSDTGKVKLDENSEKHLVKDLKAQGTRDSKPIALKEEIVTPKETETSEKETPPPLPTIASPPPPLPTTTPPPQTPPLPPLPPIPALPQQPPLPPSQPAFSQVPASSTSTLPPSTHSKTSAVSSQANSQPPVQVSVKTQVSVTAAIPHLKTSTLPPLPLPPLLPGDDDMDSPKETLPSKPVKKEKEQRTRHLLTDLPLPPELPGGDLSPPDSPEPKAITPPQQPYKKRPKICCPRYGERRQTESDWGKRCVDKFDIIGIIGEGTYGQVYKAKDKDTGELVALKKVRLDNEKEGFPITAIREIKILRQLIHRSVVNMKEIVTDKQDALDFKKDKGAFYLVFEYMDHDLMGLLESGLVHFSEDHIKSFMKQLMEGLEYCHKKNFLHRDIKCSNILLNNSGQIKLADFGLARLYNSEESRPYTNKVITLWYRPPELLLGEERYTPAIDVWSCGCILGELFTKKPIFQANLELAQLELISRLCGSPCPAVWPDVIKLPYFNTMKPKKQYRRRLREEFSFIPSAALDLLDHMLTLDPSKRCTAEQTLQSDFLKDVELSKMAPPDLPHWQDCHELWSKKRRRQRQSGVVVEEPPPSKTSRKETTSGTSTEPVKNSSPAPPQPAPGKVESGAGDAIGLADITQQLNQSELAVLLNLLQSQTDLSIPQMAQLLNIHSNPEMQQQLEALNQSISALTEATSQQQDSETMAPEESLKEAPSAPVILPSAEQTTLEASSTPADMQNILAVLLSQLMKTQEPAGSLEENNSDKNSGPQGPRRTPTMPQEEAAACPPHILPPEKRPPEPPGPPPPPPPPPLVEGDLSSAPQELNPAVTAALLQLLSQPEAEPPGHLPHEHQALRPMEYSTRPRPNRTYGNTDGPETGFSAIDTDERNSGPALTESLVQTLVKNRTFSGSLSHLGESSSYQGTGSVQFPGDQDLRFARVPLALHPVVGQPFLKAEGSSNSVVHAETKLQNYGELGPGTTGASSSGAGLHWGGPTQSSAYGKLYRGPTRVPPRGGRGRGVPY
Further: in the data inactive means no Kd found up to 30 µM.

Chain of Casein kinase I isoform epsilon (P49674 whole entry, canonical isoform): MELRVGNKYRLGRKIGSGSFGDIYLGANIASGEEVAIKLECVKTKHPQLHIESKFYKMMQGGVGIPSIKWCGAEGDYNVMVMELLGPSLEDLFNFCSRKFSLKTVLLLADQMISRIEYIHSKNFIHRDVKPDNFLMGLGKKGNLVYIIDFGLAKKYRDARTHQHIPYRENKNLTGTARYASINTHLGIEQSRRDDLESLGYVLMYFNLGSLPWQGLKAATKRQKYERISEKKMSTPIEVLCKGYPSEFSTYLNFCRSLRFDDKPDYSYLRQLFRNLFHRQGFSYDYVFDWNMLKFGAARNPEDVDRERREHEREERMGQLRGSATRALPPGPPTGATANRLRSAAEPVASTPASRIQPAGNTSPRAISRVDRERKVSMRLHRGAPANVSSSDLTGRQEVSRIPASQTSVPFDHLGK

Structure (SMILES) | Kd (Actin-related protein 2) | Kd [1] | Kd [2] | Kd [3] | Kd [4] | Kd [5] | Kd [6] | Kd [7] | Kd [8] | Kd [9] | Kd (Myosin-10) | Kd (Aurora kinase B) | Kd [10] | Kd [11]
COc1c(OCCCN2CCOCC2)ccc2c1N=C(NC(=O)c1cnc(N)nc1)N1CCN=C21 [COPANLISIB] | > 30 µM (inactive) | > 30 µM (inactive) | > 30 µM (inactive) | > 30 µM (inactive) | > 30 µM (inactive) | > 30 µM (inactive) | > 30 µM (inactive) | > 30 µM (inactive) | > 30 µM (inactive) | > 30 µM (inactive) | > 30 µM (inactive) | > 30 µM (inactive) | > 30 µM (inactive) | > 30 µM (inactive)
O=C(Nc1nc2cccc(-c3ccc(CN4CCS(=O)(=O)CC4)cc3)n2n1)C1CC1 [FILGOTINIB] | > 30 µM (inactive) | > 30 µM (inactive) | > 30 µM (inactive) | > 30 µM (inactive) | > 30 µM (inactive) | > 30 µM (inactive) | > 30 µM (inactive) | > 30 µM (inactive) | > 30 µM (inactive) | > 30 µM (inactive) | > 30 µM (inactive) | > 30 µM (inactive) | > 30 µM (inactive) | > 30 µM (inactive)
O=C(Nc1cc(C(F)(F)F)cc(C(F)(F)F)c1)c1cc(Cl)ccc1O [IMD-0354] | > 30 µM (inactive) | > 30 µM (inactive) | > 30 µM (inactive) | > 30 µM (inactive) | > 30 µM (inactive) | > 30 µM (inactive) | > 30 µM (inactive) | > 30 µM (inactive) | > 30 µM (inactive) | > 30 µM (inactive) | > 30 µM (inactive) | > 30 µM (inactive) | > 30 µM (inactive) | > 30 µM (inactive)
CCCCCCCCCCCCCCCCCCOP(=O)([O-])OC1CC[N+](C)(C)CC1 [PERIFOSINE] | > 30 µM (inactive) | > 30 µM (inactive) | > 30 µM (inactive) | > 30 µM (inactive) | > 30 µM (inactive) | > 30 µM (inactive) | > 30 µM (inactive) | > 30 µM (inactive) | > 30 µM (inactive) | > 30 µM (inactive) | > 30 µM (inactive) | > 30 µM (inactive) | > 30 µM (inactive) | > 30 µM (inactive)

Other lines, results leading:

Kd (Actin-related protein 2) | Kd [1] | Kd [2] | Kd [3] | Kd [4] | Kd [5] | Kd [6] | Kd [7] | Kd [8] | Kd [9] | Kd (Myosin-10) | Kd (Aurora kinase B) | Kd [10] | Kd [11] | Structure (SMILES)
> 30 µM (inactive) | > 30 µM (inactive) | > 30 µM (inactive) | > 30 µM (inactive) | > 30 µM (inactive) | > 30 µM (inactive) | > 30 µM (inactive) | > 30 µM (inactive) | > 30 µM (inactive) | > 30 µM (inactive) | > 30 µM (inactive) | > 30 µM (inactive) | > 30 µM (inactive) | > 30 µM (inactive) | C#Cc1cccc(Nc2ncnc3cc(OC)c(OCCCCCCC(=O)NO)cc23)c1 [CUDC-101]
> 30 µM (inactive) | > 30 µM (inactive) | > 30 µM (inactive) | > 30 µM (inactive) | > 30 µM (inactive) | > 30 µM (inactive) | > 30 µM (inactive) | > 30 µM (inactive) | > 30 µM (inactive) | > 30 µM (inactive) | > 30 µM (inactive) | > 30 µM (inactive) | > 30 µM (inactive) | > 30 µM (inactive) | CN(C[C@@H]1COCCO1)S(=O)(=O)Nc1ccc2ccc3ncc(-c4cnn(C)c4)cc3c(=O)c2c1 [MK-2461]
> 30 µM (inactive) | > 30 µM (inactive) | > 30 µM (inactive) | > 30 µM (inactive) | > 30 µM (inactive) | > 30 µM (inactive) | > 30 µM (inactive) | > 30 µM (inactive) | > 30 µM (inactive) | > 30 µM (inactive) | > 30 µM (inactive) | > 30 µM (inactive) | > 30 µM (inactive) | > 30 µM (inactive) | N#CC1(c2ccc(NC(=O)c3cccnc3NCc3ccncc3)cc2)CCCC1 [RIVOCERANIB]
